{"source": "patent US20080214480A1", "about": "“Method for Treating Sickle Cell Disease and Sickle Cell Disease Sequalae” (TRF Pharma, Inc., priority 2005, published 2008)", "key": {"HUVEC cells": {"system": "HUVEC cells", "settings": "Barabino et al, Blood 1999; cited from earlier work"}, "[1]": {"system": "patients with sickle cell crises", "settings": "four patients, 12-month self-administered intravenous minidose heparin vs 12 months off heparin; cited from earlier work"}, "immobilized P-selectin": {"biological_target": "T1, immobilized P-selectin (Homo sapiens, UniProt P16109)", "T1 sequence (P16109 42-830)": "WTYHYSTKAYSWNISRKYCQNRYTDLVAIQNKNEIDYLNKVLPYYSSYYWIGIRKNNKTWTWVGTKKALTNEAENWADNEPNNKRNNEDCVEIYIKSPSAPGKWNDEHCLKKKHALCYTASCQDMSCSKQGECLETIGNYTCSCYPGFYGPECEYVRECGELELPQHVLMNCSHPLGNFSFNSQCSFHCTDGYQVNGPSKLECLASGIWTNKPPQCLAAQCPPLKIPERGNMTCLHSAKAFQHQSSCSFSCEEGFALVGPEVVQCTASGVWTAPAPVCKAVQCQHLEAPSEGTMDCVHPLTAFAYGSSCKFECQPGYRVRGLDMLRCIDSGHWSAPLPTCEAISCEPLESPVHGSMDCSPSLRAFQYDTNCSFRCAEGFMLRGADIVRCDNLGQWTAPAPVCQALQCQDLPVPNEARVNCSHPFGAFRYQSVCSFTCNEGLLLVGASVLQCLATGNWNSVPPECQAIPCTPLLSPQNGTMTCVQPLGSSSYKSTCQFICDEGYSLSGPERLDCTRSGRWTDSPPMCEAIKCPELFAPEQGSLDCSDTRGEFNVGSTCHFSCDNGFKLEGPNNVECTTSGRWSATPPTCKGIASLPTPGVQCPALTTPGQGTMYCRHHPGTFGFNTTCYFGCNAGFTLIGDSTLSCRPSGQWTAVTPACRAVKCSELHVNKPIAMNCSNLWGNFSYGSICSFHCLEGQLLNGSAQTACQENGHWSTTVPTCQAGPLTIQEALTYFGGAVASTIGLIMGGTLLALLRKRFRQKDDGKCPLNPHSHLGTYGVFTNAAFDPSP", "settings": "Matsui, Blood 2002; cited from earlier work"}, "human endothelial cells": {"system": "human endothelial cells", "settings": "Gupta et al; cited from earlier work"}, "Human SCD patients": {"system": "Human SCD patients", "experiment": "Computer-assisted intravital microscopy (CAIM) of conjunctival microcirculation, Example 1", "assay_type": "in vivo", "settings": "SCD patients hospitalized for VOC, high dose, relative to placebo group", "excerpt": "Human SCD patients are enrolled to be studied by a non-invasive videotape of the conjunctival microcirculation. Recently, microvascular characteristics in SCD patients have been quantified using computer-assisted intravital microscopy (CAIM), a novel technology involving intravital video-microscopy coupled with imaging protocols, to study and analyze steady-state and vaso-occlusive crisis (VOC) microvascular characteristics in SCD (Cheung et al, Blood. 2002; 99:3999). During VOC, decreases in vascularity (“blanching”) occur as a result of vasoconstriction and diminished blood flow through the microvessels. […] The microvascular changes during VOC are transient and revert to steady-state values after crisis resolution. These specific reversals in VOC are used as the basis for this study to evaluate and quantify the effects of PPS on the microcirculation.\nBecause of the unique shape and form of conjunctival vessels, each vessel is easily identified and located to be re-studied. Each vessel serves as its own reference (control) to evaluate and quantify microvascular changes. […] CAIM is used to non-invasively videotape and longitudinally quantify the changes in venular diameter and red-cell velocity pre- and post-treatment of PPS, sulodexide or placebo at various time points post treatment."}, "[2]": {"settings": "Wardle 1992; cited from earlier work"}, "DU145": {"system": "DU145", "settings": "DU145, dependent on anchorage; cited from earlier work"}, "[3]": {"system": "adhesion of RBC from sickle cell patients (ssRBC) to human umbilical vein endothelial cells (HUVEC)", "experiment": "Variable height flow chamber adhesion of ssRBC to endothelial cells, Example 4", "assay_type": "cell-based", "settings": "HUVEC stimulated with thrombin or TNF-alpha, treated thirty minutes at 37° C., versus control preparations", "procedure": "The effects of PPS or sulodexide on sickle cell erythrocyte adhesion are evaluated by in vitro study according to procedures similar to those described in Telen et al. (Blood, 2004, 104:3774); Niihara et al (BMC Blood Disorders, 2005, 5:4); and Barabino et al (Blood, 1999, 93:1422-29). In brief, a variable height flow chamber is used to quantitate the effects of PPS on the adhesion of RBC from sickle cell patients (ssRBC) to endothelial cells. Human umbilical vein endothelial cells (HUVEC) are grown on gelatin coated glass slides until confluent. The HUVEC's are then stimulated with thrombin or TNF-alpha and washed with PBS with Ca^+2 and Mg^+2. Following activation, the endothelial cells are treated with various concentrations of PPS for thirty minutes at 37° C. The endothelial cells are then washed in PBS with Ca^+2 and Mg^+2, mounted onto the variable height flow chamber where the final testing unit is assembled. […] Adhesion is quantitated by counting the adherent ssRBCs in a field in 7 different locations along the slide in the direction of the flow. The height of the chamber at each of these 7 locations is measured so that the shear stress can be calculated; note that the typical range seen is between 0.3 to 2.7 dynes/cm^2. […]"}, "LNCaP": {"system": "LNCaP", "settings": "dependent on anchorage; cited from earlier work"}, "PC-3": {"system": "PC-3", "settings": "PC-3, not dependent on anchorage; cited from earlier work"}, "tumor cell adhesion": {"system": "tumor cell adhesion", "settings": "direct measurements, Schamhart; cited from earlier work"}, "transplanted livers": {"system": "transplanted livers", "settings": "livers pretreated with PPS; cited from earlier work"}}, "data": [{"substance": "heparin sulfate", "values": [{"measurement": "sickle cell adhesion to HUVEC cells", "setting": "HUVEC cells", "value": "did not"}]}, {"substance": "chondroitin sulfate", "values": [{"measurement": "sickle cell adhesion to HUVEC cells", "setting": "HUVEC cells", "value": "inhibited"}]}, {"substance": "heparin", "values": [{"measurement": "pain reduction", "setting": "[1]", "value": "improvement in pain reduction"}, {"measurement": "in vitro flow adhesion of sickle cells to immobilized P-selectin", "setting": "immobilized P-selectin", "value": "inhibited"}, {"measurement": "sickle cell adhesion to HUVEC cells", "setting": "HUVEC cells", "value": "inhibited"}, {"measurement": "sickle erythrocyte adhesion to human endothelial cells in vitro", "setting": "human endothelial cells", "value": "inhibited"}]}, {"substance": "low molecular weight heparin", "values": [{"measurement": "in vitro flow adhesion of sickle cells to immobilized P-selectin", "setting": "immobilized P-selectin", "value": "not low molecular weight heparin proved to be effective"}]}, {"substance": "Pentosan polysulfate [PPS]", "values": [{"measurement": "microvascular flow (venular diameter and red-cell velocity by CAIM)", "setting": "Human SCD patients", "value": "significant improvement in microvascular flow"}, {"measurement": "anticoagulant potency relative to heparin", "setting": "[2]", "value": "about one-fifteenth"}, {"measurement": "growth and migration of tumor cell line", "setting": "DU145", "value": "inhibited"}, {"measurement": "percentage of adherent cells", "setting": "[3]", "value": "reduction"}, {"measurement": "growth and migration of tumor cell line", "setting": "LNCaP", "value": "inhibited"}, {"measurement": "growth and migration of tumor cell line", "setting": "PC-3", "value": "no effect"}, {"measurement": "tumor cell adhesion", "setting": "tumor cell adhesion", "value": "inhibited"}, {"measurement": "leukocytes adhering to the vascular wall", "setting": "transplanted livers", "value": "significantly fewer"}, {"measurement": "reperfusion edema", "setting": "transplanted livers", "value": "no reperfusion edema"}]}, {"substance": "dextran sulfate", "values": [{"measurement": "sickle cell adhesion to HUVEC cells", "setting": "HUVEC cells", "value": "inhibited"}]}]}
